Source: patent US20190248779A1, “COMPOUNDS, COMPOSITIONS, AND METHODS FOR INCREASING CFTR ACTIVITY” (Proteostasis Therapeutics, Inc., priority 2016, published 2019)

Target: T1, ΔF508-CFTR (Homo sapiens, UniProt P13569, DEL508-508)
T1 construct: Primary lung epithelial cells homozygous for the Cystic Fibrosis-causing ΔF508 mutation were differentiated for a minimum of 4 weeks; endogenous in cells; host or cells: primary lung (bronchial) epithelial cells (hBE) homozygous for ΔF508, differentiated at an air-liquid interface
Assay: hBE equivalent current (Ieq) assay
Type: cell-based
Conditions: 24 h, relative to a CFTR amplifier at 3 uM, AUC of equivalent chloride current, primary lung epithelial cells homozygous for ΔF508; for Activity 10 μM: compound at 10 μM
Description: ii. hBE Equivalent Current (Ieq) Assay
Primary lung epithelial cells homozygous for the Cystic Fibrosis-causing ΔF508 mutation were differentiated for a minimum of 4 weeks in an air-liquid interface on Costar 24 well HTS filter plates prior to the equivalent current (Ieq) measurements. Cells were apically mucus-washed for 30 minutes 24 h prior to treatment with compounds. The basolateral media was removed and replaced with media containing the compound of interest diluted to its final concentration from DMSO stocks. Treated cells were incubated at 37° C. and 5% CO2 for 24 hours. At the end of the treatment period, the media was changed to the Ieq experimental solution for 2 hours before the experiment and plates are maintained in a CO2-free incubator during this period. The plates containing the cells were then placed in pre-warmed heating blocks at 36° C.±0.5 for 15 minutes before measurements are taken. The transepithelial voltage (VT) and conductance (GT) were measured using a custom 24 channel current clamp (TECC-24) with 24 well electrode manifold. The Ieq assay measurements were made following additions with standardized time periods:
1. The baseline VT and GT values were measured for approximately 20 minutes.
2. Benzamil was added to block ENaC for 15 minutes.
3. Forskolin plus VX-770 were added to maximally activate ΔF508-CFTR for 27 minutes.
4. Bumetanide was added to inhibit the NaK2Cl cotransporter and shut-off secretion of chloride.
The activity data captured was the area under the curve (AUC) for the traces of the equivalent chloride current. The AUC was collected from the time of the forskolin/VX-770 addition until the inhibition by bumetanide addition. Correction in response to compound treatment was scored as the increase in the AUC for compound-treated samples over that of vehicle-treated samples.
The results are shown below in Table 1. + indicates activity <150% of a CFTR amplifier with compound at concentration shown and amplifier at 3 uM; ++ indicates activity >150% of a CFTR amplifier with compound at concentration shown and amplifier at 3 uM.

T1 sequence (P13569 with tags, fused parts or gaps DEL508-508): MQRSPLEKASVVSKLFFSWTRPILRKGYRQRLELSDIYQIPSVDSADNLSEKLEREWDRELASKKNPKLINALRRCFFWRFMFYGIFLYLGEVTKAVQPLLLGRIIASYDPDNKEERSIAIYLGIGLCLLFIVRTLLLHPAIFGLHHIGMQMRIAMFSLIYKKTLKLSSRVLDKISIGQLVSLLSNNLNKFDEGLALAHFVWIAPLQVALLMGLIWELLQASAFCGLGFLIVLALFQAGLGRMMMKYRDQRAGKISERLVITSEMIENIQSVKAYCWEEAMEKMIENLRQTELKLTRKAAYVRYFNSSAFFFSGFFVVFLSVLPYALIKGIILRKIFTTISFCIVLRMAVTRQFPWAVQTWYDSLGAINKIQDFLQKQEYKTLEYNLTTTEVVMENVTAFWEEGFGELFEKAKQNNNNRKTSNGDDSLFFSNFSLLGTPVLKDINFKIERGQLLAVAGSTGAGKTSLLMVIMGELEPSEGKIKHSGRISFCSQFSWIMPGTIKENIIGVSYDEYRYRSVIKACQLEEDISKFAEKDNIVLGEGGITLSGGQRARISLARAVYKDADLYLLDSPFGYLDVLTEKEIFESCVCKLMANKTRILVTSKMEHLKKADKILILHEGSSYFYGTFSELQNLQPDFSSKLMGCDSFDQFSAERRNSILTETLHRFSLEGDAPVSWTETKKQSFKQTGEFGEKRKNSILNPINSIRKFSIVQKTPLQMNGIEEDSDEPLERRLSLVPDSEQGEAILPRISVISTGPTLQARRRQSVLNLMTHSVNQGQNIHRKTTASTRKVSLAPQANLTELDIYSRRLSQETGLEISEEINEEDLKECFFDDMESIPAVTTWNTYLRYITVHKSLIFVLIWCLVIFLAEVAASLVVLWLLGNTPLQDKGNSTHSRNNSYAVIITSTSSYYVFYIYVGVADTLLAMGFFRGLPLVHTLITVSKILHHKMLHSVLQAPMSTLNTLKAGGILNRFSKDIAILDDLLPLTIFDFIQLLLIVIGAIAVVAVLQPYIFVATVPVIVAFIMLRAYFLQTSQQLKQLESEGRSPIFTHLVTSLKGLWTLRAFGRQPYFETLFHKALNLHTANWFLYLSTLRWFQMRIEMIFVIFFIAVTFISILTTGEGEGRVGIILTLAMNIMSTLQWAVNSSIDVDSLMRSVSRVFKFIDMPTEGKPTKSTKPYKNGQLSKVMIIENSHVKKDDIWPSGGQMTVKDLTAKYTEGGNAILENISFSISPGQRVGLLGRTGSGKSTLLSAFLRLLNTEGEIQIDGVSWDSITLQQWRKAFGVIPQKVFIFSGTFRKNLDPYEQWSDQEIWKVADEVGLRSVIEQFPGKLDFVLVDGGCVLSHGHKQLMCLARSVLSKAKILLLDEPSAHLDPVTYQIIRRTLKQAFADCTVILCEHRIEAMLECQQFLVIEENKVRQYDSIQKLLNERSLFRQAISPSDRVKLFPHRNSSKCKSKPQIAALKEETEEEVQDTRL

| SMILES | Activity 10 μM | Activity 3 μM (compound at 3 μM) |
| --- | --- | --- |
| COc1ccnc(-c2ccc(=O)n(C(C)C(=O)Nc3ccc(C(F)(F)F)cc3)n2)c1 (centres unmarked) [Compound 21, 2-(3-(4-Methoxypyridin-2-yl)-6-oxopyridazin-1(6H)-yl)-N-(4-(trifluoromethyl)phenyl)propanamide] | + (activity <150% of a CFTR amplifier with compound at concentration shown and amplifier at 3 uM) |  |
| COc1cccc(-c2ccc(=O)n(C(C)C(=O)Nc3ccc(C(F)(F)F)cc3)n2)n1 (centres unmarked) [Compound 22, 2-(3-(6-Methoxypyridin-2-yl)-6-oxopyridazin-1(6H)-yl)-N-(4-(trifluoromethyl)phenyl)propanamide] | + (activity <150% of a CFTR amplifier with compound at concentration shown and amplifier at 3 uM) | ++ (activity >150% of a CFTR amplifier with compound at concentration shown and amplifier at 3 uM) |
| CC(C(=O)Nc1ccc(C(F)(F)F)cc1)n1nc(-c2cc(Cl)cs2)ccc1=O (centres unmarked) [Compound 23, 2-(3-(4-Chlorothiophen-2-yl)-6-oxopyridazin-1(6H)-yl)-N-(4-(trifluoromethyl)phenyl)propanamide] | ++ (activity >150% of a CFTR amplifier with compound at concentration shown and amplifier at 3 uM) |  |
| CC(C(=O)Nc1ccc(C(F)(F)F)cc1)n1nc(-c2ccsc2Cl)ccc1=O (centres unmarked) [Compound 24, 2-(3-(2-Chlorothiophen-3-yl)-6-oxopyridazin-1(6H)-yl)-N-(4-(trifluoromethyl)phenyl)propanamide] | ++ (activity >150% of a CFTR amplifier with compound at concentration shown and amplifier at 3 uM) |  |
| CC(C(=O)Nc1ccc(C(F)(F)F)cc1)n1nc(-c2cc(Cl)sc2Cl)ccc1=O (centres unmarked) [Compound 25, 2-(3-(2,5-Dichlorothiophen-3-yl)-6-oxopyridazin-1(6H)-yl)-N-(4-(trifluoromethyl)phenyl)propanamide] | + (activity <150% of a CFTR amplifier with compound at concentration shown and amplifier at 3 uM) |  |
| CC(C(=O)Nc1ccc(C(F)(F)F)cc1)n1nc(-c2csc(Cl)n2)ccc1=O (centres unmarked) [Compound 26, 2-[3-(2-Chloro-1,3-thiazol-4-yl)-6-oxo-1,6-dihydropyridazin-1-yl]-N-[4-(trifluoromethyl)phenyl]propanamide] | + (activity <150% of a CFTR amplifier with compound at concentration shown and amplifier at 3 uM) |  |
| CC(C(=O)Nc1ccc(C(F)(F)F)cc1)n1nc(-c2cnc(Cl)s2)ccc1=O (centres unmarked) [Compound 27, 2-[3-(2-Chloro-1,3-thiazol-5-yl)-6-oxo-1,6-dihydropyridazin-1-yl]-N-[4-(trifluoromethyl)phenyl]propanamide] | + (activity <150% of a CFTR amplifier with compound at concentration shown and amplifier at 3 uM) |  |
